Measured values taken from the NIST ThermoML archive (doi:10.1021/je049662k).

Conditions: Liquid; for mass density: isochoric method; for viscosity: Falling or rolling sphere viscometry

CCC(C)C(C)C (configuration not stated) [2,3-dimethylpentane]
Conditions | mass density [kg/m3] | viscosity [mPa·s]
278.15 K, 100 kPa | 707.6 | –
278.15 K, 1000 kPa | 708.3 | –
278.15 K, 5000 kPa | 711.6 | –
278.15 K, 10000 kPa | 715.5 | –
278.15 K, 15000 kPa | 719.1 | –
278.15 K, 20000 kPa | 722.7 | –
278.15 K, 25000 kPa | 726 | –
278.15 K, 30000 kPa | 729.2 | –
278.15 K, 35000 kPa | 732.2 | –
278.15 K, 40000 kPa | 735.2 | –
278.15 K, 45000 kPa | 738 | –
283.15 K, 100 kPa | 703.2 | –
283.15 K, 1000 kPa | 704 | –
283.15 K, 5000 kPa | 707.4 | –
283.15 K, 10000 kPa | 711.5 | –
283.15 K, 15000 kPa | 715.3 | –
283.15 K, 20000 kPa | 718.9 | –
283.15 K, 25000 kPa | 722.3 | –
283.15 K, 30000 kPa | 725.6 | –
283.15 K, 35000 kPa | 728.7 | –
283.15 K, 40000 kPa | 731.7 | –
283.15 K, 45000 kPa | 734.6 | –
293.15 K, 100 kPa | 694.9 | –
293.15 K, 1000 kPa | 695.7 | –
293.15 K, 5000 kPa | 699.3 | –
293.15 K, 10000 kPa | 703.6 | –
293.15 K, 15000 kPa | 707.7 | –
293.15 K, 20000 kPa | 711.5 | –
293.15 K, 25000 kPa | 715.1 | –
293.15 K, 30000 kPa | 718.6 | –
293.15 K, 35000 kPa | 721.9 | –
293.15 K, 40000 kPa | 725 | –
293.15 K, 45000 kPa | 728 | –
303.15 K, 100 kPa | 686.3 | 0.356
303.15 K, 1000 kPa | 687.2 | 0.36
303.15 K, 5000 kPa | 691.1 | 0.377
303.15 K, 10000 kPa | 695.7 | 0.398
303.15 K, 15000 kPa | 700 | 0.419
303.15 K, 20000 kPa | 704.1 | 0.441
303.15 K, 25000 kPa | 707.9 | 0.462
303.15 K, 30000 kPa | 711.6 | 0.485
303.15 K, 35000 kPa | 715 | 0.507
303.15 K, 40000 kPa | 718.3 | 0.53
303.15 K, 45000 kPa | 721.5 | 0.553
303.15 K, 50000 kPa | – | 0.576
303.15 K, 55000 kPa | – | 0.6
303.15 K, 60000 kPa | – | 0.624
313.15 K, 100 kPa | 677.6 | 0.324
313.15 K, 1000 kPa | 678.6 | 0.328
313.15 K, 5000 kPa | 682.8 | 0.343
313.15 K, 10000 kPa | 687.7 | 0.361
313.15 K, 15000 kPa | 692.3 | 0.38
313.15 K, 20000 kPa | 696.6 | 0.399
313.15 K, 25000 kPa | 700.7 | 0.418
313.15 K, 30000 kPa | 704.5 | 0.438
313.15 K, 35000 kPa | 708.2 | 0.458
313.15 K, 40000 kPa | 711.6 | 0.479
313.15 K, 45000 kPa | 715 | 0.5
313.15 K, 50000 kPa | – | 0.522
313.15 K, 55000 kPa | – | 0.544
313.15 K, 60000 kPa | – | 0.566
323.15 K, 100 kPa | 668.7 | 0.29
323.15 K, 1000 kPa | 669.8 | 0.294
323.15 K, 5000 kPa | 674.3 | 0.308
323.15 K, 10000 kPa | 679.6 | 0.326
323.15 K, 15000 kPa | 684.5 | 0.344
323.15 K, 20000 kPa | 689.1 | 0.362
323.15 K, 25000 kPa | 693.4 | 0.381
323.15 K, 30000 kPa | 697.5 | 0.399
323.15 K, 35000 kPa | 701.3 | 0.418
323.15 K, 40000 kPa | 705 | 0.437
323.15 K, 45000 kPa | 708.4 | 0.457
323.15 K, 50000 kPa | – | 0.476
323.15 K, 55000 kPa | – | 0.496
323.15 K, 60000 kPa | – | 0.517
333.15 K, 100 kPa | 659.7 | 0.262
333.15 K, 1000 kPa | 660.9 | 0.266
333.15 K, 5000 kPa | 665.8 | 0.28
333.15 K, 10000 kPa | 671.5 | 0.298
333.15 K, 15000 kPa | 676.7 | 0.316
333.15 K, 20000 kPa | 681.6 | 0.334
333.15 K, 25000 kPa | 686.2 | 0.352
333.15 K, 30000 kPa | 690.5 | 0.369
333.15 K, 35000 kPa | 694.5 | 0.387
333.15 K, 40000 kPa | 698.3 | 0.404
333.15 K, 45000 kPa | 702 | 0.422
333.15 K, 50000 kPa | – | 0.439
333.15 K, 55000 kPa | – | 0.457
333.15 K, 60000 kPa | – | 0.474
343.15 K, 100 kPa | 650.6 | 0.244
343.15 K, 1000 kPa | 651.9 | 0.247
343.15 K, 5000 kPa | 657.2 | 0.26
343.15 K, 10000 kPa | 663.3 | 0.276
343.15 K, 15000 kPa | 668.9 | 0.292
343.15 K, 20000 kPa | 674.1 | 0.309
343.15 K, 25000 kPa | 678.9 | 0.325
343.15 K, 30000 kPa | 683.5 | 0.342
343.15 K, 35000 kPa | 687.7 | 0.359
343.15 K, 40000 kPa | 691.7 | 0.376
343.15 K, 45000 kPa | 695.5 | 0.393
343.15 K, 50000 kPa | – | 0.41
343.15 K, 55000 kPa | – | 0.428
343.15 K, 60000 kPa | – | 0.445
353.15 K, 100 kPa | 641.3 | 0.232
353.15 K, 1000 kPa | 642.7 | 0.234
353.15 K, 5000 kPa | 648.5 | 0.246
353.15 K, 10000 kPa | 655.1 | 0.261
353.15 K, 15000 kPa | 661.1 | 0.276
353.15 K, 20000 kPa | 666.6 | 0.291
353.15 K, 25000 kPa | 671.7 | 0.306
353.15 K, 30000 kPa | 676.5 | 0.321
353.15 K, 35000 kPa | 680.9 | 0.336
353.15 K, 40000 kPa | 685.1 | 0.35
353.15 K, 45000 kPa | 689.1 | 0.365
353.15 K, 50000 kPa | – | 0.381
353.15 K, 55000 kPa | – | 0.395
353.15 K, 60000 kPa | – | 0.411

Cc1ccccc1 [toluene]
viscosity [mPa·s]
Conditions | 303.15 K | 313.15 K | 323.15 K | 333.15 K | 343.15 K | 353.15 K
100 kPa | 0.525 | 0.469 | 0.422 | 0.382 | 0.349 | 0.32
1000 kPa | 0.526 | 0.474 | 0.427 | 0.386 | 0.351 | 0.32
5000 kPa | 0.544 | 0.487 | 0.439 | 0.397 | 0.362 | 0.331
10000 kPa | 0.568 | 0.509 | 0.458 | 0.413 | 0.376 | 0.344
15000 kPa | 0.593 | 0.529 | 0.476 | 0.43 | 0.391 | 0.359
20000 kPa | 0.617 | 0.55 | 0.495 | 0.446 | 0.406 | 0.373
25000 kPa | 0.64 | 0.57 | 0.514 | 0.463 | 0.421 | 0.387
30000 kPa | 0.662 | 0.59 | 0.533 | 0.48 | 0.437 | 0.401
35000 kPa | 0.685 | 0.61 | 0.552 | 0.497 | 0.453 | 0.415
40000 kPa | 0.707 | 0.63 | 0.572 | 0.515 | 0.469 | 0.429
45000 kPa | 0.729 | 0.651 | 0.592 | 0.533 | 0.485 | 0.443
50000 kPa | 0.752 | 0.671 | 0.612 | 0.551 | 0.502 | 0.458
55000 kPa | 0.774 | 0.693 | 0.633 | 0.571 | 0.52 | 0.473
60000 kPa | 0.797 | 0.715 | 0.654 | 0.59 | 0.537 | 0.488
